Results as given in patent US12459951B2, “Compounds that interact with RAS superfamily proteins for treatment of cancers, inflammatory diseases, rasopathies, and fibrotic disease” (SHY Therapeutics, LLC, priority 2022, dated 2025).

Assays:
[1] = tested on: Smad2/Smad3 phosphorylation; test: Phospho-Smad2/3 Inhibition Assay (western blot), Panc-1; format: cell-based, human; conditions: at 10 μM, Panc-1 pancreatic cancer cell line; starred symbols = activation
Experimental: Protocol for Phospho-Smad2/3 Inhibition Assay
This assay is referred to as the “Phospho-Smad2/3 Inhibition Assay” throughout this application.
(§1) Cell lines: Human tumor-derived pancreatic cancer cell line Panc-1 (expressing KRas G12D mutant) and mouse muscle myoblast C2C12 were purchased from American Type Culture Collection and grown in complete DMEM-High Glucose, supplemented with penicillin (100 U/mL), streptomycin (100 μg/mL), and 10% heat-inactivated FBS at 37° C. in a humidified incubator with 5% CO2.
Method: Cells were plated at 350000 cells/well density in a 12-well plate, allowed 3 hours to adhere to the plate, then starved in the appropriate medium in the presence of 0.5% FBS overnight. The small molecules to be tested were added to the cells in the final concentration of 10 μM in the presence of 0.3% DMSO for 3 hours incubation at 37° C. For IC50 value determination, serial dilutions of compounds were added to cells under the same conditions. Next, Panc-1 cells were stimulated with 10 ng/ml TGF-b1 for 1 hour, and C2C12 cells were stimulated with 10 ng/ml TGF-b1 for 20 minutes (recombinant human TGF-b1, R&D Systems). After stimulation cells were lysed with lysis buffer containing 1% Triton X-100, EDTA, and Halt™ Protease & Phosphatase Inhibitor Cocktail (Thermo Scientific). Protein concentration was assessed by BCA protein assay (Thermo Scientific). Phosphorylation level of Smad2/Smad3 was determined by western blot.
(§2) Western blot protocol: Equal amounts of protein (15-50 μg) were separated by SDS-PAGE and transferred to nitrocellulose membranes (Invitrogen by Thermo Fisher Scientific). The membrane was stained with Ponceau S Stain (Boston BioProducts) to verify uniform protein loading. Membranes were blocked with 10% milk and phosphorylation levels of Smad2/Smad3 were assessed by incubating overnight at 4° C. with the following antibodies: Phospho-Smad2 (Ser465/467) and Phosph-Smad3 (Ser423/425), both from Cell Signaling Technology. Then the membranes were incubated with HRP-conjugated secondary antibody (Jackson Immunoresearch, West Grove, PA). Bands were incubated in Amersham ECL Prime Western Blotting Detection Reagent (GE Healthcare) and visualized using the ChemiDoc MP imaging system (Bio-Rad).

[2] = tested on: Erk1/2 phosphorylation; test: Erk1/2 Phosphorylation Assay (western blot), Panc-1; format: cell-based, human; conditions: at 10 μM, * = activation
Experimental: Protocol for Western Erk1/2 Cell-Based Phosphorylation Assay
This assay is referred to as the “Erk1/2 Phosphorylation Assay” throughout this application.
as §1, with “was” for “and mouse muscle myoblast C2C12 were”, “Glucose medium,” for “Glucose,”
Method 1: Cells were plated at 350000 cells/well density in a 12-well plate, allowed 3 hours to adhere to the plate, then starved in the appropriate medium in the presence of 0.5% FBS overnight. The small molecules to be tested were added to the cells in the final concentration of 10 μM in the presence of 0.3% DMSO for 6 hours incubation at 37° C. For IC50 value determination, serial dilutions of compounds were added to cells under the same conditions. Next, cells were stimulated with 1.5 ng/ml EGF for 15 minutes then cells were lysed with lysis buffer containing 1% Triton X-100, EDTA, and Halt™ Protease & Phosphatase Inhibitor Cocktail (Thermo Scientific). Protein concentration was assessed by BCA protein assay (Thermo Scientific). Phosphorylation level of Erk1/2 was determined by western blot.
Method 2: Cells were plated at 350000 cells/well density in a 12-well plate in 10% FBS. The next day small molecules to be tested were added to the cells in the final concentration of 10 μM in the presence of 0.3% DMSO for 6 hours incubation at 37° C. For IC50 value determination, serial dilutions of compounds were added to cells under the same conditions. Next, cells were lysed with lysis buffer containing 1% Triton X-100, EDTA, and Halt™ Protease & Phosphatase Inhibitor Cocktail (Thermo Scientific). Protein concentration was assessed by BCA protein assay (Thermo Scientific). Phosphorylation level of Erk1/2 was determined by western blot.
as §2, with “Erk1/2” for “Smad2/Smad3”, “anti-phospho-p44/42 (Thr202/Tyr204) antibody (Cell Signaling) followed by” for “the following antibodies: Phospho-Smad2 (Ser465/467) and Phosph-Smad3 (Ser423/425), both from Cell Signaling Technology. Then the membranes were incubated with”

Question: For CO[C@H]1CC[C@@H](Nc2nc(-c3ccccn3)nn3cc(-c4ccn(C(C)C)n4)c(C)c23)C1 (racemic) [Compound 9, rac 6-(1-Isopropyl-1H-pyrazol-3-yl)-N-((1R,3S)-3-methoxycyclopentyl)-5-methyl-2-(pyridin-2-yl)pyrrolo[2,1-f][1,2,4]triazin-4-amine], which “% inh of Smad2/3 phosphorylation in Panc-1” value [1] is on record?
Answer: 0 (0 = 0% inhibition)

Question: And the “% inh of Erk1/2 phosphorylation in Panc-1” value [2]?
Answer: 0 (0% inhibition)

Question: Which “% inh of Smad2/3 phosphorylation in Panc-1” value [1] does the source give for CO[C@@H]1CC[C@@H](Nc2nc(-c3nccn3C)nn3cc(-c4ccn(C)n4)c(C)c23)C1 (racemic) [Compound 132, rac N-((1R,3R)-3-Methoxycyclopentyl)-5-methyl-2-(1-methyl-1H-imidazol-2-yl)-6-(1-methyl-1H-pyrazol-3-yl)pyrrolo[2,1-f][1,2,4]triazin-4-amine] here?
Answer: A* (A* = 1-25% activation)

Question: And the “% inh of Erk1/2 phosphorylation in Panc-1” value [2]?
Answer: 0 (0% inhibition)

Question: Which results are given for CO[C@H]1CC[C@@H](Nc2nc(-c3nccn3C)nn3cc(-c4ccn(C)n4)c(C)c23)C1 (racemic) [Compound 133, rac N-((1R,3S)-3-Methoxycyclopentyl)-5-methyl-2-(1-methyl-1H-imidazol-2-yl)-6-(1-methyl-1H-pyrazol-3-yl)pyrrolo[2,1-f][1,2,4]triazin-4-amine]?
Answer: % inh of Smad2/3 phosphorylation in Panc-1 [1]: A (A = 1-25% inhibition); % inh of Erk1/2 phosphorylation in Panc-1 [2]: A (1-25% inhibition)

Question: How did the “% inh of Smad2/3 phosphorylation in Panc-1” value [1] turn out when CO[C@@H]1CC[C@@H](Nc2nc(-c3nccn3C)nn3cc(-c4cccnc4)c(C)c23)C1 (racemic) [Compound 154, rac N-((1R,3R)-3-methoxy-cyclopentyl)-5-methyl-2-(1-methyl-1H-imidazol-2-yl)-6-(pyridin-3-yl)pyrrolo[2,1-f][1,2,4]triazin-4-amine] was run?
Answer: C (C = 46-75% inhibition)

Question: What about the “% inh of Erk1/2 phosphorylation in Panc-1” value [2] of the same molecule?
Answer: C* (46-84% activation)

Question: CO[C@H]1CC[C@@H](Nc2nc(-c3nccn3C)nn3cc(-c4cccnc4)c(C)c23)C1 (racemic) [Compound 155, rac N-((1R,3S)-3-methoxy-cyclopentyl)-5-methyl-2-(1-methyl-1H-imidazol-2-yl)-6-(pyridin-3-yl)pyrrolo[2,1-f][1,2,4]triazin-4-amine] was tested. Which “% inh of Smad2/3 phosphorylation in Panc-1” value [1] did it give?
Answer: A (A = 1-25% inhibition)

Question: What about the “% inh of Erk1/2 phosphorylation in Panc-1” value [2] of the same molecule?
Answer: A* (1-25% activation)

Question: COc1cc(-c2cn3nc(-c4nccn4C)nc(N[C@@H]4CC[C@@H](OC)C4)c3c2C)ccn1 (racemic) [Compound 163, rac N-((1R,3R)-3-Methoxycyclopentyl)-6-(2-methoxypyridin-4-yl)-5-methyl-2-(1-methyl-1H-imidazol-2-yl)pyrrolo[2,1-f][1,2,4]triazin-4-amine] was tested. Which “% inh of Smad2/3 phosphorylation in Panc-1” value [1] did it give?
Answer: B (B = 26-45% inhibition)

Question: And the “% inh of Erk1/2 phosphorylation in Panc-1” value [2]?
Answer: A* (1-25% activation)

Question: Which results are given for COc1cc(-c2cn3nc(-c4nccn4C)nc(N[C@@H]4CC[C@H](OC)C4)c3c2C)ccn1 (racemic) [Compound 164, rac N-((1R,3S)-3-Methoxycyclopentyl)-6-(2-methoxypyridin-4-yl)-5-methyl-2-(1-methyl-1H-imidazol-2-yl)pyrrolo[2,1-f][1,2,4]triazin-4-amine]?
Answer: % inh of Smad2/3 phosphorylation in Panc-1 [1]: A* (A* = 1-25% activation); % inh of Erk1/2 phosphorylation in Panc-1 [2]: A* (1-25% activation)

Question: Which “% inh of Smad2/3 phosphorylation in Panc-1” value [1] does the source give for COc1cc(Nc2nc(-c3nccn3C)nn3cc(-c4ccn(C(C)C)n4)c(C)c23)ncn1 [Compound 6, 6-(1-Isopropyl-1H-pyrazol-3-yl)-N-(6-methoxypyrimidin-4-yl)-5-methyl-2-(1-methyl-1H-imidazol-2-yl)pyrrolo[2,1-f][1,2,4]triazin-4-amine] here?
Answer: 0 (0 = 0% inhibition)

Question: What about the “% inh of Erk1/2 phosphorylation in Panc-1” value [2] of the same molecule?
Answer: 0 (0% inhibition)

Question: How did the “% inh of Smad2/3 phosphorylation in Panc-1” value [1] turn out when Cc1c(-c2ccn(C(C)C)n2)cn2nc(-c3ccccn3)nc(O)c12 [Compound 8, 6-(1-Isopropyl-1H-pyrazol-3-yl)-5-methyl-2-(pyridin-2-yl)pyrrolo[2,1-f][1,2,4]triazin-4-ol] was run?
Answer: 0 (0 = 0% inhibition)

Question: What about the “% inh of Erk1/2 phosphorylation in Panc-1” value [2] of the same molecule?
Answer: 0 (0% inhibition)

Question: What does the source list for Cc1c(-c2ccn(C(C)C)n2)cn2nc(-c3nccn3C)nc(Nc3nccn3C)c12 [Compound 93, 6-(1-Isopropyl-1H-pyrazol-3-yl)-5-methyl-N,2-bis(1-methyl-1H-imidazol-2-yl)pyrrolo[2,1-f][1,2,4]triazin-4-amine]?
Answer: % inh of Smad2/3 phosphorylation in Panc-1 [1]: A (A = 1-25% inhibition); % inh of Erk1/2 phosphorylation in Panc-1 [2]: D (85-100% inhibition)

Question: Which “% inh of Smad2/3 phosphorylation in Panc-1” value [1] does the source give for COc1cc(Nc2nc(-c3nccn3C)nn3cc(-c4ccccn4)c(C)c23)ncn1 [Compound 94, N-(6-Methoxypyrimidin-4-yl)-5-methyl-2-(1-methyl-1H-imidazol-2-yl)-6-(pyridin-2-yl)pyrrolo[2,1-f][1,2,4]triazin-4-amine] here?
Answer: B* (B* = 26-45% activation)

Question: What about the “% inh of Erk1/2 phosphorylation in Panc-1” value [2] of the same molecule?
Answer: C* (46-84% activation)

Question: How did the “% inh of Smad2/3 phosphorylation in Panc-1” value [1] turn out when COc1ccnc(Nc2nc(-c3nccn3C)nn3cc(-c4ccn(C(F)F)n4)c(C)c23)n1 [Compound 95, 6-(1-(Difluoromethyl)-1H-pyrazol-3-yl)-N-(4-methoxypyrimidin-2-yl)-5-methyl-2-(1-methyl-1H-imidazol-2-yl)pyrrolo[2,1-f][1,2,4]triazin-4-amine] was run?
Answer: C* (C* = 46-75% activation)

Question: And the “% inh of Erk1/2 phosphorylation in Panc-1” value [2]?
Answer: D* (85-100% activation)

Question: How did the “% inh of Smad2/3 phosphorylation in Panc-1” value [1] turn out when Cc1c(-c2ccn(C(C)C)n2)cn2nc(-c3nccn3C)nc(Nc3nccc(OCCN(C)C)n3)c12 [Compound 96, N-(4-(2-(Dimethylamino)ethoxy)pyrimidin-2-yl)-6-(1-isopropyl-1H-pyrazol-3-yl)-5-methyl-2-(1-methyl-1H-imidazol-2-yl)pyrrolo[2,1-f][1,2,4]triazin-4-amine] was run?
Answer: D (D = 76-100% inhibition)

Question: What about the “% inh of Erk1/2 phosphorylation in Panc-1” value [2] of the same molecule?
Answer: 0 (0% inhibition)

Question: Which “% inh of Smad2/3 phosphorylation in Panc-1” value [1] does the source give for Cc1c(-c2ccn(C(C)C)n2)cn2nc(-c3nccn3C)nc(Nc3cc(OCCO)ncn3)c12 [Compound 97, 2-((6-((6-(1-Isopropyl-1H-pyrazol-3-yl)-5-methyl-2-(1-methyl-1H-imidazol-2-yl)pyrrolo[2,1-f][1,2,4]triazin-4-yl)amino)pyrimidin-4-yl)oxy) ethan-1-ol] here?
Answer: D (D = 76-100% inhibition)

Question: And the “% inh of Erk1/2 phosphorylation in Panc-1” value [2]?
Answer: D* (85-100% activation)

Question: Which “% inh of Smad2/3 phosphorylation in Panc-1” value [1] does the source give for COc1cc(Nc2nc(-c3nccn3C)nn3cc(-c4ccn(C(F)F)n4)c(C)c23)ncn1 [Compound 98, 6-(1-(Difluoromethyl)-1H-pyrazol-3-yl)-N-(6-methoxypyrimidin-4-yl)-5-methyl-2-(1-methyl-1H-imidazol-2-yl)pyrrolo[2,1-f][1,2,4]triazin-4-amine] here?
Answer: D (D = 76-100% inhibition)

Question: And the “% inh of Erk1/2 phosphorylation in Panc-1” value [2]?
Answer: D* (85-100% activation)

Question: Which “% inh of Smad2/3 phosphorylation in Panc-1” value [1] does the source give for Cc1c(-c2ccn(C)n2)cn2nc(-c3nccn3C)nc(Cl)c12 [Compound 99, 4-Chloro-5-methyl-2-(1-methyl-1H-imidazol-2-yl)-6-(1-methyl-1H-pyrazol-3-yl)pyrrolo[2,1-f][1,2,4]triazine] here?
Answer: D (D = 76-100% inhibition)

Question: What about the “% inh of Erk1/2 phosphorylation in Panc-1” value [2] of the same molecule?
Answer: D* (85-100% activation)
